The structures appear in SMILES notation. Where two headings read alike, the source gives them in different places.

The conditions of series [1]: hydroxybenzoate salts of gabapentin in water; precipitates from aqueous solution. The text has this:
Numerous processes for reducing the chloride ions content in gabapentin exist. […] The proportion of remaining hydrochloride admixtures should thereby not exceed 20 ppm. The same also applies to other mineral acids.”

For series [2] the following is noted: stated as known; cited from earlier work.
Series [3] can be described thus: storage stability (increase of lactam content on storage). The format is physicochemical. The conditions noted are these: gabapentin obtained by the process; after one year at 25° C. and 50% humidity. The method, then: According to the invention, an aqueous solution containing approx. 10 to approx. 18 kg, preferably 13-15 kg, of gabapentin per 100 liters of water, at a temperature ranging from approx. 25 to approx. 60° C., preferably from 30 to 45° C., is added with the hydroxyacid in amounts of 0.95-1.05 mols per mol of gabapentin, the preferred molar ratio between the compounds being 1:1. The resulting suspension is stirred at the same temperature for 5-10 hours, then cooled to approx. 15-25° C. The resulting gabapentin hydroxybenzoate is dried under vacuum at approx. 50° C. The yield is approx. 90% on theoretical, with a assay higher than 99.5%. The resulting salt is suspended in a lower alcohol, preferably absolute ethanol, in amounts of approx. 3-5 liters per kg of salt, at a temperature of 15-25° C., and the suspension is added with an amount of tertiary amine (preferably tributylamine and most preferably N-ethyl-diisopropylamine (“Hünig base”)) in amounts of 1-1.2 mols per mol of gabapentin hydroxybenzoate. After stirring for some hours at the same temperature, the mixture is cooled to 5-10° C., the precipitated gabapentin is filtered or centrifuged, washed with the same alcohol, then stirred with ethanol containing approx. 10% by volume of water.

As to `NCC1(CC(=O)O)CCCCC1.O=C(O)c1ccc(O)cc1` [gabapentin 4-hydroxybenzoate], the water-solubility entry in series [1] is given as “so poor”. As for `NCC1(CC(=O)O)CCCCC1` [gabapentin, 1-(aminomethyl)-cyclohexaneacetic acid], the water-solubility result in series [2] is recorded as “highly water-soluble”. For the same compound, the “increase of content in lactam on storage” value in series [3] is “does not undergo substantial increases”. Take `NCC1(CC(=O)O)CCCCC1.O=C(O)c1ccccc1O` [salicylate, gabapentin salicylate]: in series [1], the water-solubility result was “so poor”.

Source of the values: US6790986B1, “Process for the preparation of gabapentin free from inorganic acids anions” (Farchemia S.r.l., priority 2003, dated 2004).
